Measured values from patent US20220096399A1 (Berg LLC, priority 2012, published 2022).
“Also recorded” adds a separate entry of the source. Like-named read-outs stand apart in the source and are kept apart here.

Assays:
[1] = for Maximum tolerated dose (MTD): first interim analysis, highest dose 104.3 mg/kg per dose
Procedure: An interim analysis was performed on the study participants.
(§1) A standard 3×3 phase I dose-escalation design was used with patients (n=31) with advanced solid malignancies.
Pharmacokinetic (PK) information was calculated with serial serum collection data. Tumor response was determined using RECIST 1.1.

[2] = tested on: advanced solid malignancies
Procedure: The study was also performed to examine preliminary efficacy (using RECIST 1.1 criteria), overall clinical benefit, and progression free survival. An interim analysis was performed on the study participants.
as §1
Tumor response was determined using RECIST 1.1.
An exploratory assessment of antitumor activity was undertaken during the study using modified Response Criteria in Solid Tumors (RECIST) v1.1. Tumors were measured at baseline or screening, at the end of Cycle 1 and Cycle 2 treatments, and once every 2 treatment cycles (2 months) thereafter in the absence of clinically rapid progression of disease.

[3] = Phase I trial pharmacokinetic analysis (serial serum collection)
Procedure: Pharmacokinetic (PK) information was calculated with serial serum collection data. Tumor response was determined using RECIST 1.1. Clinical benefit (decreased pain, increased quality of life) was assessed by the treating physician.
Pharmacokinetic and pharmacodynamic analyses were performed during the study as well.

[4] = Example 4, of 39 evaluable subjects
[5] = person, pleomorphic fibrosarcoma, 6 cycles, 22.5 to 58.7 mg/kg/dose

COC1=C(OC)C(=O)C(C/C=C(\C)CC/C=C(\C)CC/C=C(\C)CC/C=C(\C)CC/C=C(\C)CC/C=C(\C)CC/C=C(\C)CC/C=C(\C)CC/C=C(\C)CCC=C(C)C)=C(C)C1=O [CoQ10, Coenzyme Q10]
Maximum tolerated dose (MTD) ([1]; 104.3 mg/kg): has not been identified; also recorded: had not been reached | Maximum tolerated dose (MTD) ([1]; listed as coenzyme Q10, 104.3 mg/kg): no MTD had been reached | Patients reporting headache during first week of treatment (%) ([1]; in vivo): 29.0% | Patients reporting headache during first week of treatment (number) ([1]; in vivo): Nine | Patients with Grade I asymptomatic elevation of INR (%) ([1]; in vivo): 74.1% | Patients with Grade I asymptomatic elevation of INR (number) ([1]; in vivo): 23 patients | Patients with Grade II INR elevation of greater than 2.0 (%) ([1]; in vivo): 45.1% | Patients with Grade II INR elevation of greater than 2.0 (number) ([1]; in vivo): 14 patients | Primary Reason for Discontinuation: Intolerable Toxicity, % ([1]; in vivo): 8% | Subjects with INR greater than 3 (%) ([1]; in vivo): 12.9% | Subjects with INR greater than 3 (number) ([1]; in vivo): four | Subjects with INR greater than 5 (%) ([1]; in vivo): 6% | Subjects with INR greater than 5 (number) ([1]; in vivo): two | Best Response: Unevaluable, % ([2]; 50 subjects): 20% | Best Response: Unknown, % ([2]; 50 subjects): 2% | Primary Reason for Discontinuation: Progressive Disease, % ([2]; 50 subjects): 52% | Best Response: Complete Response, % ([2]; 50 subjects, RECIST v1.1): 0% | Best Response: Partial Response, % ([2]; 50 subjects, RECIST v1.1): 2% | Best Response: Progressive Disease, % ([2]; 50 subjects, RECIST v1.1): 30% | Best Response: Stable Disease, % ([2]; 50 subjects, RECIST v1.1): 46% | Best outcome of partial response (number of subjects) [2, 4]: 2 subjects | Best outcome of progressive disease (number of subjects) [2, 4]: 15 subjects | Best outcome of stable disease (number of subjects) [2, 4]: 22 subjects | Average time on treatment of patients with clinical benefit ([2]; first interim analysis): 16 weeks | Median Progression Free survival ([2]; first interim analysis): 2 months | Patients with a clinical benefit (%) ([2]; first interim analysis, n=31): 61.2% | Patients with a clinical benefit (number) ([2]; first interim analysis, n=31): Nineteen | Average time subjects remained on treatment ([2]; first interim analysis, treatment until clinical progression): 90 days | Progression free survival and/or clinical benefit ([2]; interim data summary): a majority of patients enrolled in this trial had an increased progression free survival and/or clinical benefit | Tumor responses observed ([2]; interim data summary): A partial response and minor response were observed | Evaluable subjects with clinically relevant response by RECIST 1.1 (at least stable disease), number ([2]; of 40 evaluable subjects): 24 subjects | Evaluable subjects with clinically relevant response by RECIST 1.1 (at least stable disease), % ([2]; of 40 evaluable subjects who completed at least one treatment cycle): 60% | Duration of partial response ([2]; one subject with sarcoma of the extremity): at least 6 months | Individual outcome: tumor lesion (CT) ([2]; person, metastatic myxoid liposarcoma, 58.6 mg/kg/dose, four treatment cycles): resolution of their anterior mediastinal lesion | Individual outcome: tumor response ([2]; person, pleomorphic fibrosarcoma with bone metastasis, 6 cycles, 22.5 to 58.7 mg/kg/dose): minor response | Individual outcome: pain [2, 5]: significant improvement in pain | Individual outcome: tumor size (CT) [2, 5]: Tumor shrinkage was also observed | Individual outcome: duration of response ([2]; person, pleomorphic fibrosarcoma, 22.5 to 58.7 mg/kg/dose): over 10 months | Dose-proportionality of AUC ([3]; C31510 formulation, FIG. 5): not strictly proportional to dose | Dependence of t1/2 on dose ([3]; human, IV infusion): little or no dependence on dose | Linearity of pharmacokinetics ([3]; human, IV infusion): linear
